From patent publication US11078168B2, “Substituted N-hydroxyamidinoheterocycles as modulators of indoleamine 2,3-dioxygenase” (PHENEX DISCOVERY VERWALTUNGS-GMBH, priority 2016, dated 2021)

Molecular target: T1, Indoleamine 2,3-dioxygenase (Homo sapiens, UniProt P14902)
T1 construct: endogenous in cells; host or cells: SKOV-3 (ATCC HTB-77), stimulated with interferon gamma
Assay: SKOV-3 cellular Indoleamine 2,3-dioxygenase assay
Conditions: SKOV-3 cells, 50 ng/ml Interferon gamma, 100 μM L-Tryptophan, 24 hours, N-Formylkynurenin fluorescence detection; read-out: cell based activity
Method: SKOV-3 cellular Indoleamine 2,3-dioxygenase assay
SKOV-3 cells were obtained from the American Type Culture Collection (ATCC® HTB-77™) and maintained in McCoy's medium (Pan Biotech) supplemented with 10% fetal bovine serum and 1% Penicilin/Streptomycin. Cells were kept at 37° C. in a humidified incubator with 5% CO2. For assay preparation, cells were seeded at a density of 2*10^5/ml into black clear bottom 96 well plates in 100 μl medium/well supplemented with 50 ng/ml Interferon gamma (eBioscience, Thermo Fisher Scientific). After cells fully adhered to the plate, dilution series of compounds were added in medium containing additional L-Tryptophan to a final L-Tryptophan concentration of 100 μM. The cells were incubated for 24 hours. Detection of produced N-Formylkynurenin was performed by addition of 3-Methylpiperidine to a final concentration of 200 mM. The plates were sealed and heated to 65° C. for 20 minutes in a water bath. After cooling the fluorescence of each well was recorded with a Victor™X4 (PerkinElmer) plate reader at an emission wavelength of 535 nm and excitation at 405 nm (Tomek et al.; Anal Bioanal Chem (2013) 405:2515-2524., Tomek et al.; Biochim Biophys Acta. 2015 September; 1850(9):1772-80).

T1 sequence (P14902 whole entry): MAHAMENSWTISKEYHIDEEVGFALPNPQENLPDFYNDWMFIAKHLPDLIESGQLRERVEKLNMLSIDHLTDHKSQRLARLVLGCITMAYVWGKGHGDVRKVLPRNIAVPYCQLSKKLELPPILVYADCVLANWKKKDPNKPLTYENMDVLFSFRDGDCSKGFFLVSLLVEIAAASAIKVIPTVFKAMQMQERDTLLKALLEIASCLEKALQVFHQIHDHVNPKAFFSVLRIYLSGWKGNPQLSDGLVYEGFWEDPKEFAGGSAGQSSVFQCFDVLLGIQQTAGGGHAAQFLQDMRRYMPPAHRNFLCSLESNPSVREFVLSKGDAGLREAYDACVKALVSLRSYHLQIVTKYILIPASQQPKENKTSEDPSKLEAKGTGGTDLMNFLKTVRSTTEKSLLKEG

IC50 | SMILES
> 1 µM | CS(=O)(=O)CCOc1nonc1C(=NO)Nc1ccc(F)c(Cl)c1 [Example 20, N-(3-Chloro-4-fluorophenyl)-N′-hydroxy-4-(2-(methylsulfonyl)ethoxy)-1,2,5-oxadiazole-3-carboximidamide]
0.1 to 1 µM | Nc1c(NCCSc2nsnc2C(=NO)Nc2ccc(F)c(Cl)c2)c(=O)c1=O [102/2]
< 0.1 µM | NC(=O)C(=O)NCCSc1nonc1C(=NO)Nc1ccc(F)c(Cl)c1 [Example 116, N^1-(2-((4-(N-(3-Chloro-4-fluorophenyl)-N′-hydroxycarbamimidoyl)-1,2,5-oxadiazol-3-yl)thio)ethyl)oxalamide]
< 0.1 µM | CS(=O)(=O)CC(=O)NCCOc1nonc1C(=NO)Nc1ccc(F)c(Cl)c1 [9/15]
> 1 µM | COc1nonc1C(=NO)Nc1cccc(CCCl)c1 [Example 22, N-(3-(2-Chloroethyl)phenyl)-N′-hydroxy-4-methoxy-1,2,5-oxadiazole-3-carboximidamide]
< 0.1 µM | NC(=O)CC(=O)NCCSc1nonc1C(=NO)Nc1cccc(C(F)(F)F)c1 [119/1]
< 0.1 µM | ON=C(Nc1ccc(F)c(Br)c1)c1nonc1SCC(F)(F)F [Example 103/2]
< 0.1 µM | NS(=O)(=O)CC(=O)NCCOc1nonc1C(=NO)Nc1ccc(F)c(C(F)(F)F)c1 [9/21]
< 0.1 µM | NS(=O)(=O)NCCOc1nonc1/C(=N/O)Nc1ccc(F)c(Br)c1 [Example 6, N-(3-Bromo-4-fluorophenyl)-N′-hydroxy-4-(2-(sulfamoylamino)ethoxy)-1,2,5-oxadiazole-3-carboximidamide]
< 0.1 µM | Nc1c(NCCOc2nonc2C(=NO)Nc2ccc(F)c(Br)c2)c(=O)c1=O [2/1]
< 0.1 µM | CS(=N)(=O)CC(=O)NCCSc1nonc1C(=NO)Nc1ccc(F)c(C(F)(F)F)c1 (stereo not drawn) [127/2]
< 0.1 µM | Nc1c(NCCOc2nonc2C(=NO)Nc2ccc(F)c(Cl)c2)c(=O)c1=O [Example 2, 4-(2-((2-Amino-3,4-dioxocyclobut-1-en-1-yl)amino)ethoxy)-N-(3-chloro-4-fluorophenyl)-N′-hydroxy-1,2,5-oxadiazole-3-carboximidamide]
0.1 to 1 µM | O=C(NCCOc1nonc1C(=NO)Nc1ccc(F)c(Cl)c1)c1nnc[nH]1 [9/5]
0.1 to 1 µM | O=C(NCCSc1nonc1C(=NO)Nc1ccc(F)c(Cl)c1)c1nnn[nH]1 [Example 117, N-(2-((4-(N-(3-Chloro-4-fluorophenyl)-N′-hydroxycarbamimidoyl)-1,2,5-oxadiazol-3-yl)thio)ethyl)-1H-tetrazole-5-carboxamide]
< 0.1 µM | NS(=O)(=O)CC(=O)NCCSc1nonc1/C(=N/O)Nc1ccc(F)c(C(F)F)c1 [117/12]
0.1 to 1 µM | [O-][S+](c1nonc1C(=NO)Nc1ccc(F)c(Br)c1)C1CC1 (stereo not drawn) [109/2]
< 0.1 µM | CS(=O)(=O)c1ccc(C(=O)NCCSc2nonc2C(=NO)Nc2ccc(F)c(C(F)F)c2)cc1 [107/24]
0.1 to 1 µM | CS(=O)(=O)Nc1ccc(C(=O)NCCSc2nonc2C(=NO)Nc2ccc(F)c(Cl)c2)cn1 [Example 121, N-(2-((4-(N-(3-Chloro-4-fluorophenyl)-N′-hydroxycarbamimidoyl)-1,2,5-oxadiazol-3-yl)thio)ethyl)-6-(methylsulfonamido)nicotinamide]
< 0.1 µM | Nc1c(NCCOc2nonc2C(=NO)Nc2cccc(C(F)(F)F)c2)c(=O)c1=O [2/6]

IC50 | SMILES
< 0.1 µM | C[C@@H](CSc1nonc1C(=NO)Nc1ccc(F)c(C(F)F)c1)NC(=O)CCS(N)(=O)=O (single isomer, unassigned) [114/3]
< 0.1 µM | NC(=O)CS(=O)(=O)NCCOc1nonc1C(=NO)Nc1ccc(F)c(C(F)F)c1 [4/2]
< 0.1 µM | CS(=O)(=O)CC(=O)NCCSc1nonc1/C(=N/O)Nc1ccc(F)c(C(F)F)c1 [107/32]
< 0.1 µM | Cn1nc(C(=O)NCCSc2nonc2C(=NO)Nc2ccc(F)c(Cl)c2)[nH]c1=O [117/3]
< 0.1 µM | NS(=O)(=O)CC(=O)NCCSc1nonc1/C(=N/O)Nc1ccc(F)c(C(F)(F)F)c1 [107/31]
0.1 to 1 µM | CNS(=O)(=O)N(C)CCOc1nonc1C(=NO)Nc1ccc(F)c(Cl)c1 [6/5]
< 0.1 µM | O=C(NCCSc1nonc1C(=NO)Nc1ccc(F)c(C(F)F)c1)c1ccc(C(O)(C(F)(F)F)C(F)(F)F)nc1 [107/30]
< 0.1 µM | CC1(O)CN(CCSc2nonc2C(=NO)Nc2ccc(F)c(C(F)F)c2)C1 [Example 108, N-(3-(Difluoromethyl)-4-fluorophenyl)-N′-hydroxy-4-((2-(3-hydroxy-3-methylazetidin-1-yl)ethyl)thio)-1,2,5-oxadiazole-3-carboximidamide]
< 0.1 µM | CS(=O)(=O)NCCOc1nonc1/C(=N/O)Nc1ccc(F)c(Br)c1 [Example 1, N-(3-Bromo-4-fluorophenyl)-N′-hydroxy-4-(2-(methylsulfonamido)ethoxy)-1,2,5-oxadiazole-3-carboximidamide]
< 0.1 µM | O=C(NCCSc1nonc1C(=NO)Nc1ccc(F)c(C(F)(F)F)c1)C1=NOC(C(O)(C(F)(F)F)C(F)(F)F)C1 (stereo not drawn) [107/22]
> 1 µM | O=C(CC1SC(=O)NC1=O)NCCOc1nonc1C(=NO)Nc1ccc(F)c(Cl)c1 (stereo not drawn) [9/6]
0.1 to 1 µM | N[C@@H](CC(=O)NCCOc1nonc1C(=NO)Nc1ccc(F)c(Cl)c1)C(=O)O [3/1]
> 1 µM | O=C(NCCCOc1nonc1C(=NO)Nc1ccc(F)c(Cl)c1)c1nn[nH]n1 [9/8]
> 1 µM | O=C(O)CCOc1nonc1C(=NO)Nc1ccc(F)c(Cl)c1 [Example 13, 3-((4-(N-(3-Chloro-4-fluorophenyl)-N′-hydroxycarbamimidoyl)-1,2,5-oxadiazol-3-yl)oxy)propanoic acid]
0.1 to 1 µM | CN(C)C(=O)C(=O)NCCOc1nonc1C(=NO)Nc1ccc(F)c(Cl)c1 [9/19]
0.1 to 1 µM | O=C(NCCOc1nonc1C(=NO)Nc1ccc(F)c(Cl)c1)C1(O)CC1 [9/12]
< 0.1 µM | NC(=O)CC(=O)NCCOc1nonc1C(=NO)Nc1ccc(F)c(Cl)c1 [7/1, N^1-(2-((4-(N-(3-chloro-4-fluorophenyl)-N′-hydroxycarbamimidoyl)-1,2,5-oxadiazol-3-yl)oxy)ethyl)malonamide]
0.1 to 1 µM | O=C(NCCOc1nonc1C(=NO)Nc1ccc(F)c(Cl)c1)C1(O)CNC1 [3/2]
< 0.1 µM | NS(=O)(=O)N1CC(C(=O)NCCSc2nonc2C(=NO)Nc2ccc(F)c(C(F)F)c2)C1 [128/7]

IC50 | SMILES
< 0.1 µM | C[C@H](CSc1nonc1C(=NO)Nc1ccc(F)c(C(F)F)c1)NC(=O)CCS(N)(=O)=O (single isomer, unassigned) [114/2]
< 0.1 µM | NC(=O)CC(=O)NCCSc1nonc1C(=NO)Nc1cccc(C(F)F)c1 [119/2]
< 0.1 µM | CS(=N)(=O)CC(=O)NCCSc1nonc1C(=NO)Nc1ccc(F)c(C(F)F)c1 (stereo not drawn) [127/1]
< 0.1 µM | CS(=O)(=O)CCC(=O)NCCSc1nonc1C(=NO)Nc1ccc(F)c(C(F)F)c1 [107/38]
> 1 µM | O=S(=O)(NCCOc1nonc1C(=NO)Nc1ccc(F)c(Cl)c1)C(F)(F)F [1/2]
< 0.1 µM | Nc1c(NCCSc2nonc2C(=NO)Nc2ccc(F)c(Cl)c2)c(=O)c1=O [Example 102, 4-((2-((2-Amino-3,4-dioxocyclobut-1-en-1-yl)amino)ethyl)thio)—N-(3-chloro-4-fluorophenyl)-N′-hydroxy-1,2,5-oxadiazole-3-carboximidamide]
0.1 to 1 µM | Nc1c(NCC[S+]([O-])c2nonc2C(=NO)Nc2ccc(F)c(Cl)c2)c(=O)c1=O (stereo not drawn) [Example 109, 4-((2-((2-Amino-3,4-dioxocyclobut-1-en-1-yl)amino)ethyl)sulfinyl)-N-(3-chloro-4-fluorophenyl)-N′-hydroxy-1,2,5-oxadiazole-3-carboximidamide]
< 0.1 µM | NS(=O)(=O)CC(=O)NCCSc1nonc1C(=NO)Nc1cc(F)cc(C(F)F)c1 [107/2]
< 0.1 µM | N#CC1(c2ccc(C(=O)NCCSc3nonc3C(=NO)Nc3ccc(F)c(C(F)F)c3)cc2)CC1 [107/28]
< 0.1 µM | CS(=O)(=O)NCCOc1nonc1C(=NO)Nc1ccc(F)c(Cl)c1 [1/1]
> 1 µM | CC(C)(C(=O)O)C(=O)NCCOc1nonc1C(=NO)Nc1ccc(F)c(Cl)c1 [9/11]
0.1 to 1 µM | CC(CN)Oc1nonc1C(=NO)Nc1ccc(F)c(Cl)c1 (stereo not drawn) [Example 17, 4-((1-Aminopropan-2-yl)oxy)-N-(3-chloro-4-fluorophenyl)-N′-hydroxy-1,2,5-oxadiazole-3-carboximidamide]
< 0.1 µM | NS(=O)(=O)CC(=O)NCCSc1nonc1/C(=N/O)Nc1cccc(C(F)(F)F)c1 [117/13]
< 0.1 µM | CC(C)(O)C(=O)NCCSc1nonc1C(=NO)Nc1ccc(F)c(C(F)F)c1 [107/6]
0.1 to 1 µM | Cc1nnc(CCCOc2nonc2C(=NO)Nc2ccc(F)c(Cl)c2)[nH]1 [Example 12, N-(3-Chloro-4-fluorophenyl)-N′-hydroxy-4-(3-(5-methyl-4H-1,2,4-triazol-3-yl)propoxy)-1,2,5-oxadiazole-3-carboximidamide]
0.1 to 1 µM | O=C(NCCSc1nonc1C(=NO)Nc1ccc(F)c(Cl)c1)c1ccc(C(O)(C(F)(F)F)C(F)(F)F)cc1 [117/4]
< 0.1 µM | CC(C)(O)c1ccc(C(=O)NCCSc2nonc2C(=NO)Nc2ccc(F)c(C(F)(F)F)c2)cc1 [107/19]
< 0.1 µM | CS(=N)(=O)CC(=O)NCCSc1nonc1C(=NO)Nc1cccc(Br)c1 (stereo not drawn) [127/4]
< 0.1 µM | CS(=O)(=O)CCC(=O)NCCSc1nonc1/C(=N/O)Nc1ccc(F)c(Br)c1 [107/41]
